Key:
[1] = tested on: Salmonella typhimurium ATCC 13311; test: Growth in inoculated milk at 12° C., plate count; type: cell-based; conditions: non-fat milk; for CFU/ml, day 0: 0 days; for CFU/ml, day 2: 2 days; for CFU/ml, day 4: 4 days; for CFU/ml, day 6: 6 days
Procedure: Stock cultures of Salmonella typhimurium ATCC 13311 and Escherichia coli O157:H7 ATCC 700728 which were used to inoculate liquid cultures were routinely kept on agar plates containing brain heart infusion (Oxoid CM225, Basingstoke, United Kingdom) fortified with 1.5% agar. […] Just prior to the inoculation of the foods the cultures were diluted with a solution containing 0.1% peptone and 0.85% NaCl.
Sterile non-fat milk was obtained from a local supermarket. Appropriate quantities of amino acids were added.
Milk was cooled to 10° C. and subsequently inoculated with an appropriately diluted culture of Salmonella typhimurium. Inoculated milk samples were incubated at 12° C.
The microbial analysis of the food samples was done as follows: A sealing bag was opened and to this were added 2 times the net weight of sterile dilution fluid ([…] and 0.1% (w/v) bacteriological peptone). Samples were homogenized for 1 min in a Stomacher 400 lab blender (Seward Medical, London, England) and 50 μl of the homogenate were plated on a suitable agar medium using an Eddyjet type 1.23 spiral plater (IUL Instruments, Barcelona, Spain). Escherichia coli 0157:H7 and Salmonella typhimurium were plated on VRBG agar (Oxoid, CM0485, Basingstoke, United Kingdom). Plates were incubated for 24 hours at 30° C. and then counted.
The effect of single additions of glycine, DL-alanine and a mixture of glycine (0.67%) and DL-alanine (0.8%) on the growth of Salmonella typhimurium in milk at 12° C. is given in Table I: […]

[2] = tested on: Salmonella enterica (ATCC 13311); conditions: broth cultures, to a concentration of 100 mM, single amino acid

Compound | CFU/ml, day 0 [1] | CFU/ml, day 2 [1] | CFU/ml, day 4 [1] | CFU/ml, day 6 [1] | effect on the growth rate of Salmonella typhimurium [2]
CC(N)C(=O)O (racemic) [DL-alanine] | 5 · 10^3 CFU/ml | 5 · 10^4 CFU/ml | 4 · 10^5 CFU/ml | 1 · 10^5 CFU/ml | little or no effect
NCC(=O)O [glycine] | 5 · 10^3 CFU/ml | 5 · 10^4 CFU/ml | 1 · 10^5 CFU/ml | 8 · 10^4 CFU/ml | little or no effect
